Data taken from US20240325544A1, “CATIONIC LIPID FOR COVALENT MODIFICATION OF PEPTIDES” (PharmalN Corporation, priority 2023, published 2024).
Bridge positions count the residues as written; N and C are the ends. Square brackets hold non-standard residues; d marks the D form. Peptide text beside a SMILES is read from it. * marks the point of attachment. Palmitoyl = CCCCCCCCCCCCCCCC(=O)*; Dap = NC[C@H](N)C(=O)O; AEEA = NCCOCCOCC(=O)O

Test system: E0771 breast cancer cells
Assay: Orthotopic mouse model of bone metastasis using breast cancer E0771 cells (FIG. 10)
Type: in vivo, mice
Experimental: FIGS. 10A-10B. […] Error bars indicate standard error of the mean. […] Also illustrated in this diagram are the corresponding schedules for each treatment administered throughout this study. From tumor implantation, SEQ ID NO: 31 treated groups (2, 3, 6, and 7) were dosed SC (0.3 mg/kg/0.1 μmol/kg in buffer 15 mM succinate, 4% (w/v) D-mannitol, 10 mM hydoxypropyl-beta-cyclodextrin pH 4.4) on Days 5-9, 12-16, 19-23, and 26-29; aPD1 treated groups (3, 5, and 7) were dosed IP (5 mg/kg) on Days 5, 7, 12, and 14; and irradiated groups (4, 5, 6, and 7) received buffer and 5 Gy of X-ray radiation in three sets at the bone on Days 5, 8, and 12. Survival was observed until Day 33, following scheduled sacrifice of remaining mice. At this point, tumor sizes were measured using calipers. […] All groups were significant compared to the control group, so statistical analysis was based on Log-rank (Mantel-Cox) test against group 5 (radiation+aPD1) using GraphPad Prism.
Animal care and treatment: Female C57BL/6J mice (6 weeks-old) were purchased from Oriental Bioservice (Kobe, Japan) and maintained under a 12-hour light/12-hour dark cycle with free access to water and standard mouse diet (CRF diet; Oriental Yeast Co., Ltd, Tokyo Japan). Implantation and drug administration: Mice were orthotopically implanted with E0771 breast cancer cells (Cosmo Bio Tokyo, Japan; 250,000 cells/mouse in RPMI1640 medium (Fujifilm, Tokyo Japan)) in their left mammary gland and E0771 mouse breast cancer cells (500,000 cells/mouse in 50% Matrigel (Corning, NY, USA, #354234)) in their femur. Mice were then randomized into several treatment groups: 1) control (n=5), 2) SEQ ID NO: 31 (n=5), 3) SEQ ID NO: 31 and aPD1 (n=5), 4) radiation (n=6), 5) radiation and aPD1 (n=5), 6) SEQ ID NO: 31 and radiation (n=6), 7) SEQ ID NO: 31, radiation, and aPD1 (n=6). […] Survival was monitored up to Day 33 (FIG. 10B) post cell inoculation, and following scheduled sacrifice of the remaining mice, tumors were harvested, and sizes were measured using calipers. […]

SMILES: CCCCCCCCCCCCCCCC(=O)NCCOCCOCC(=O)NCCOCCOCC(=O)NCCOCCOCC(=O)N[C@@H](CN)C(=O)N[C@@H](CN)C(=O)NCC(=O)N[C@@H](CC(C)C)C(=O)N[C@@H](CO)C(=O)N[C@@H](CCCCN)C(=O)NCC(=O)N[C@H]1CSSC[C@@H](C(=O)O)NC(=O)CNC(=O)[C@H](CC(C)C)NC(=O)CNC(=O)[C@H](CO)NC(=O)[C@H](CCC(N)=O)NC(=O)[C@H](CO)NC(=O)CNC(=O)[C@H]([C@@H](C)CC)NC(=O)[C@H](CCCNC(=N)N)NC(=O)[C@H](CC(=O)O)NC(=O)[C@H](CC(C)C)NC(=O)[C@H](CCCCN)NC(=O)[C@H](CC(C)C)NC(=O)CNC(=O)[C@H](Cc2ccccc2)NC1=O [SEQ ID NO: 31] ({Palmitoyl-AEEA-AEEA-AEEA}-[Dap][Dap]GLSKGCFGLKLDRIGSQSGLGC-OH; disulfide 8-24; C-terminus assumed)
- Incidence of bone metastasis (addition of SEQ ID NO: 31 in all its respective groups): reduced the incidence of bone metastasis
- Mice tumor free in the bone (group 6: SEQ ID NO: 31 + radiation): 5 out of 6
- Probability of survival vs group 5 (radiation+aPD1) (group 7: SEQ ID NO: 31 0.3 mg/kg SC + radiation + aPD1, to Day 33): significant improvement in survival
- Mice tumor free in the bone (group 7: SEQ ID NO: 31 + radiation + aPD1): 6 out of 6
